# Columns and labels:
# [1] = target: Acetylcholinesterase (AChE) (biochemical); settings: cited from earlier work; for IC50: read-out: tox21-ache-p5 (IC50)
# [2] = target: Acetylcholinesterase (AChE) (with human microsomes); settings: read-out: tox21-ms-ache-p2 (IC50); cited from earlier work
# [3] = system: cell viability counter screens
Structure (SMILES),IC50 [1],IC50 [2],tox21-ache-p5 (IC50) [1],viability assay hit rate [3]
CCOP(=S)(OCC)O/N=C(\C#N)c1ccccc1 [Phoxim],56.2 µM,1.66 µM,–,–
CCOP(=S)(Oc1ccc([N+](=O)[O-])cc1)c1ccccc1 (centres unmarked),–,2 µM,inactive,–
COP(N)(=S)Oc1ccccc1C(=O)OC(C)C (centres unmarked) [Isocarbophos],–,2.82 µM,inactive,–
Oc1cc(Cl)ccc1Oc1ccc(Cl)cc1Cl [triclosan],–,–,–,97.56%
CCOP(=S)(OCC)Oc1ccc2c(C)c(Cl)c(=O)oc2c1 [Coumaphos],53.7 µM,1.07 µM,–,–
[H]/N=C(\N/C(=N/[H])NCCCCCCNC(=N)NC(=N)Nc1ccc(Cl)cc1)Nc1ccc(Cl)cc1 [chlorhexidine],–,–,–,97.56%
CCOP(=S)(OCC)SCn1nnc2ccccc2c1=O [Azinphos-ethyl],35.5 µM,0.25 µM,–,–
O=C1C(Cl)=C(Cl)C(=O)c2ccccc21 [dichlone],–,–,–,97.56%
Cc1cc(C(C)(C)CC(C)(C)C)ccc1OCCOCC[N+](C)(C)Cc1ccccc1.[Cl-] [methylbenzethonium chloride],–,–,–,97.56%
CCOP(=S)(OCC)SC(CCl)N1C(=O)c2ccccc2C1=O (centres unmarked) [Dialifor],63.1 µM,1.41 µM,–,–
CCOP(=S)(OCC)Oc1nc(Cl)c(Cl)cc1Cl [Chlorpyrifos],79.4 µM,0.25 µM,–,–
CCOP(=S)(OCC)Oc1ccc([N+](=O)[O-])cc1 [Parathion],24.6 µM,0.74 µM,–,–
CCOP(=S)(OCC)SCSC(C)(C)C [Terbufos],–,47.9 µM,inactive,–
CC1=CC(=O)c2ccccc2C1=O [menadione],–,–,–,97.56%
Oc1c(Cl)cc(Cl)cc1Sc1cc(Cl)cc(Cl)c1O [bithionol],–,–,–,98.78%
CCOP(=S)(OCC)SCn1c(=O)oc2cc(Cl)ccc21 [Phosalone],–,5.89 µM,inactive,–
Oc1c(Cl)cc(Cl)c(Cl)c1Cc1c(O)c(Cl)cc(Cl)c1Cl [hexachlorophene],–,–,–,97.56%
CCOP(=S)(OCC)Oc1cnc2ccccc2n1 [Quinalphos],79.4 µM,1 µM,–,–

# Source: article PMC10330904 (Toxicology and applied pharmacology, 2023)
